≈ marks a conversion by molar mass, not a printed value. Some results are limits rather than exact numbers.

The MIC is the least concentration at which growth counts as inhibited. For orientation: inhibition means the share of the control response that was lost under treatment.

What all share (type): functional
Experiment [1] has as its system Staphylococcus aureus. Kind of experiment: Antibacterial activity against Staphylococcus aureus UC9218.
For experiment [2], the system named is Staphylococcus aureus. The experiment can be described thus: Inhibition of transcription/translation in Staphylococcus aureus at 100 uM.
The test system of experiment [3] is Staphylococcus aureus. The experiment can be described thus: Antibacterial activity against Staphylococcus aureus UC9218 in presence of 5% HSA.
Experiment [4] has as its system Staphylococcus aureus. The experiment can be described thus: Ratio of MIC for Staphylococcus aureus UC9218 in presence of 5% HSA to MIC for Staphylococcus aureus UC9218 in absence of HSA.
The test system of experiment [5] is Staphylococcus aureus. The experiment can be described thus: Antibacterial activity against Staphylococcus aureus UC9218 in presence of 10% HSA.

Turning to `CC(=O)c1cc(Br)ccc1NC(=O)c1ccc(S(=O)(=O)N(C)c2ccc(Cl)cc2)cc1`, the minimum inhibitory concentration (MIC) in the experiment with Staphylococcus aureus [1] was above 128 µg/mL. At 100 µM the inhibition in the experiment on Staphylococcus aureus [2] was 0%.

For `CN(c1ccc(Cl)cc1)S(=O)(=O)c1ccc(C(=O)Nc2ccc(Br)cc2-c2noc(=O)[nH]2)cc1`, the minimal inhibitory concentration (MIC) is above 128 µg/mL in the experiment with Staphylococcus aureus [3], above 128 µg/mL in the experiment on Staphylococcus aureus [5] and 8 µg/mL (≈ 14.2 µM) in the experiment with Staphylococcus aureus [1]. Moreover, in the experiment with Staphylococcus aureus [4], the Ratio is on record as above 8. Also, testing at 100 µM with Staphylococcus aureus [2] gave an inhibition of 98%.

In the experiment with Staphylococcus aureus [1], `CN(c1ccc(Cl)cc1)S(=O)(=O)c1ccc(C(=O)Nc2ccc(Br)cc2NS(C)(=O)=O)cc1` came in with an MIC above 128 µg/mL. Further, the inhibition at 100 µM with Staphylococcus aureus [2] came out at 19%.

Take `CN(c1ccc(Cl)cc1)S(=O)(=O)c1ccc(C(=O)Nc2ccc(Br)cc2C#N)cc1`: the minimum inhibitory concentration (MIC) in the experiment on Staphylococcus aureus [1] was above 128 µg/mL. The compound further gave an inhibition at 100 µM in the experiment with Staphylococcus aureus [2] of 0%.

For the compound `CN(c1ccc(Cl)cc1)S(=O)(=O)c1ccc(C(=O)Nc2ccc(Br)cc2[N+](=O)[O-])cc1`, in the experiment with Staphylococcus aureus [1], the minimal inhibitory concentration (MIC) is above 128 µg/mL. Moreover, the inhibition at 100 µM in the experiment with Staphylococcus aureus [2] amounted to 0%.

`CONC(=O)c1cc(Br)ccc1NC(=O)c1ccc(S(=O)(=O)N(C)c2ccc(Cl)cc2)cc1`: in the experiment on Staphylococcus aureus [1], the minimal inhibitory concentration (MIC) is above 128 µg/mL. In the experiment on Staphylococcus aureus [2], this compound displayed an inhibition at 100 µM of 7%.

Regarding `CN(c1ccc(Cl)cc1)S(=O)(=O)c1ccc(C(=O)Nc2ccc(Br)cc2NS(=O)(=O)C(F)(F)F)cc1`, the MIC in the experiment with Staphylococcus aureus [1] stood at 32 µg/mL (≈ 51 µM). The inhibition at 100 µM with Staphylococcus aureus [2] is 72%.

For the compound `CN(c1ccc(Cl)cc1)S(=O)(=O)c1ccc(C(=O)Nc2ccc(Br)cc2C(N)=O)cc1`, the MIC against Staphylococcus aureus [1] was above 128 µg/mL. Moreover, in the experiment with Staphylococcus aureus [2], the inhibition at 100 µM was found to be 13%.

Compound `CN(c1ccc(Cl)cc1)S(=O)(=O)c1ccc(C(=O)Nc2ccc(Br)cc2Cc2nnn[nH]2)cc1` had a minimal inhibitory concentration (MIC) in the experiment with Staphylococcus aureus [1] above 128 µg/mL. Also, 100 µM produced 46% inhibition in the experiment with Staphylococcus aureus [2].

For `CN(c1ccc(Cl)cc1)S(=O)(=O)c1ccc(C(=O)Nc2ccc(Br)cc2S(N)(=O)=O)cc1`, the minimal inhibitory concentration (MIC) in the experiment on Staphylococcus aureus [1] is above 128 µg/mL. The compound also showed an inhibition at 100 µM in the experiment on Staphylococcus aureus [2] of 0%.

For `CN(c1ccc(Cl)cc1)S(=O)(=O)c1ccc(C(=O)Nc2ccc(Br)cc2C(=O)O)cc1`, the minimum inhibitory concentration (MIC) was 128 µg/mL in the experiment with Staphylococcus aureus [3], above 128 µg/mL in the experiment on Staphylococcus aureus [5] and 8 µg/mL (≈ 15.3 µM) against Staphylococcus aureus [1]. In the experiment on Staphylococcus aureus [4], the Ratio was determined as 8. Also, the inhibition at 100 µM in the experiment with Staphylococcus aureus [2] was 79%.

For `CN(c1ccc(Cl)cc1)S(=O)(=O)c1ccc(C(=O)Nc2ccc(Br)cc2C(O)(C(F)(F)F)C(F)(F)F)cc1`, the minimal inhibitory concentration (MIC) with Staphylococcus aureus [3] is 64 µg/mL; in the experiment with Staphylococcus aureus [5], above 128 µg/mL; against Staphylococcus aureus [1], 0.5 µg/mL (≈ 0.774 µM). In the experiment on Staphylococcus aureus [4], the Ratio was 128. The compound also showed an inhibition at 100 µM in the experiment on Staphylococcus aureus [2] of 41%.

Take `CN(c1ccc(Cl)cc1)S(=O)(=O)c1ccc(C(=O)Nc2ccc(Br)cc2Br)cc1`: in the experiment with Staphylococcus aureus [1], the MIC is above 128 µg/mL. 100 µM produced 6% inhibition with Staphylococcus aureus [2].

In the experiment on Staphylococcus aureus [1], `CN(c1ccc(Cl)cc1)S(=O)(=O)c1ccc(C(=O)Nc2ccc(Br)cc2CO)cc1` came in with an MIC above 128 µg/mL. For the same compound, testing at 100 µM with Staphylococcus aureus [2] gave an inhibition of 4%.

As to `CN(c1ccc(Cl)cc1)S(=O)(=O)c1ccc(C(=O)Nc2ccc(Br)cc2-c2n[nH]c(=O)o2)cc1`, the values for the MIC in the experiment on Staphylococcus aureus [5] and in the experiment on Staphylococcus aureus [1] were above 128 µg/mL and 2 µg/mL (≈ 3.55 µM), respectively. In the experiment with Staphylococcus aureus [2], this compound registered an inhibition at 100 µM of 60%.

`CN(c1ccc(Cl)cc1)S(=O)(=O)c1ccc(C(=O)Nc2ccc(Br)cc2-c2nnn[nH]2)cc1`: the MIC with Staphylococcus aureus [1] turned out to be 16 µg/mL (≈ 29.2 µM). The compound also yielded an inhibition at 100 µM with Staphylococcus aureus [2] of 96%.

Turning to `CO[C@@H]1[C@@H](OC(N)=O)[C@@H](O)[C@H](Oc2ccc3c(O)c(NC(=O)c4ccc(O)c(CC=C(C)C)c4)c(=O)oc3c2C)OC1(C)C` [NOVOBIOCIN], the MIC was 0.5 µg/mL in the experiment with Staphylococcus aureus [3], 1 µg/mL in the experiment with Staphylococcus aureus [5] and above 0.125 µg/mL in the experiment with Staphylococcus aureus [1].

Compound `CC(O)c1cc(Br)ccc1NC(=O)c1ccc(S(=O)(=O)N(C)c2ccc(Cl)cc2)cc1` (stereo unspecified) returned an MIC in the experiment on Staphylococcus aureus [1] above 128 µg/mL. Further, the inhibition at 100 µM in the experiment on Staphylococcus aureus [2] turned out to be 7%.

Regarding `CN(c1ccc(Cl)cc1)S(=O)(=O)c1ccc(C(=O)Nc2ccc(Br)cc2)cc1`, in the experiment on Staphylococcus aureus [1], the MIC is above 128 µg/mL. For the same compound, in the experiment on Staphylococcus aureus [2], the inhibition at 100 µM is 11%.

For the compound `Cc1cc(Br)ccc1NC(=O)c1ccc(S(=O)(=O)N(C)c2ccc(Cl)cc2)cc1`, in the experiment on Staphylococcus aureus [1], the MIC is above 128 µg/mL. The compound further showed an inhibition at 100 µM with Staphylococcus aureus [2] of 12%.

The record behind these values is ChEMBL document CHEMBL1140648, “Structure-activity relationships of bioisosteres of a carboxylic acid in a novel class of bacterial translation inhibitors” (2007).
